In ChEMBL document CHEMBL1136853, “Synthesis and SAR of vinca alkaloid analogues” (Bioorg Med Chem Lett, 2009) one finds GI50, T/C and mortality data, which are given here for 13 compounds.

The subject of data set [1] is MCF7. The data set can be described thus: Cytotoxicity against human MCF7 cells. The class given is functional.
Data set [2] has as its system HeLa. The data set can be described thus: Cytotoxicity against human HeLa cells. The data set is classed as functional.
Data set [3] deals with P388. Put plainly: Antitumor activity against mouse P388 cells xenografted in mouse assessed as median life span at 6 mg/kg, ip q4d for 3 days measured for 60 days. The class given is functional. As to conditions: route intraperitoneal.
The test system of data set [4] is P388. Put plainly: Antitumor activity against mouse P388 cells xenografted in mouse assessed as median life span at 12 mg/kg, ip q4d for 3 days measured for 60 days. The data set is classed as functional. The conditions noted are these: route intraperitoneal.
The subject of data set [5] is P388. Put plainly: Antitumor activity against mouse P388 cells xenografted in mouse assessed as median life span at 8 mg/kg, ip q4d for 3 days measured for 60 days. As to conditions: route intraperitoneal. The class given is functional.
In data set [6] the test system is P388. The data set can be described thus: Antitumor activity against mouse P388 cells xenografted in mouse assessed as median life span at 4 mg/kg, ip q4d for 3 days measured for 60 days. The data set is classed as functional. The conditions noted are these: route intraperitoneal.
Data set [7] has as its system P388. Put plainly: Antitumor activity against mouse P388 cells xenografted in mouse assessed as median life span at 2 mg/kg, ip q4d for 3 days measured for 60 days. As to conditions: route intraperitoneal. The class given is functional.
For data set [8], the system named is P388. The data set can be described thus: Antitumor activity against mouse P388 cells xenografted in mouse assessed as median life span at 3 mg/kg, ip q4d for 3 days measured for 60 days. The class given is functional. The conditions noted are these: route intraperitoneal.
Data set [9] is described as follows: Toxicity to mouse assessed as mortality at 12 mg/kg, ip q4d for 3 days. The class given is organism-based. Further details: dose 12 mg/kg, route intraperitoneal. The conditions noted are these: in vivo, read-out: Activity.

For the compound `CCSc1ccc2[nH]c3c(c2c1)CN1CC(CC)=C[C@@H](C1)C[C@]3(C(=O)OC)c1cc2c(cc1OC)N(C)[C@H]1[C@@](O)(C(=O)OC)[C@H](OC(C)=O)[C@]3(CC)CC=CN4CC[C@]21[C@@H]43`, the concentration for 50% growth inhibition (GI50) was determined as 20 nM in data set [1] and 5 nM in data set [2].
As to `CCC1=C[C@H]2CN(C1)Cc1c([nH]c3ccc(C(=O)OC)cc13)[C@@](C(=O)OC)(c1cc3c(cc1OC)N(C)[C@H]1[C@@](O)(C(=O)OC)[C@H](OC(C)=O)[C@]4(CC)CC=CN5CC[C@]31[C@@H]54)C2`, the GI50 in data set [1] worked out at 50 nM; in data set [2] it was 30 nM.
For `CCSc1ccc2[nH]c3c(c2c1)CCN1C[C@H](C[C@@](O)(CC)C1)C[C@]3(C(=O)OC)c1cc2c(cc1OC)N(C=O)[C@H]1[C@@](O)(C(=O)OC)[C@H](OC(C)=O)[C@]3(CC)CC=CN4CC[C@]21[C@@H]43`, the T/C in data set [3] amounted to 107%; in data set [4], 105%. In addition, the GI50 in data set [1] stood at 8 nM; in [2], 6 nM.
Turning to `CCC1=C[C@H](C[C@](C(=O)OC)(c2cc3c(cc2OC)N(C)[C@H]2[C@@](O)(C(=O)OC)[C@H](OC(C)=O)[C@]4(CC)CC=CN5CC[C@]32[C@@H]54)c2[nH]c3ccc(N)cc3c2CC)CNC1`, the values for the concentration for 50% growth inhibition (GI50) in [1] and in [2] were 600 nM and 300 nM, respectively.
In the same order, the values of `CCC1=C[C@H]2CN(C1)Cc1c([nH]c3ccc(C(N)=O)cc13)[C@@](C(=O)OC)(c1cc3c(cc1OC)N(C)[C@H]1[C@@](O)(C(=O)OC)[C@H](OC(C)=O)[C@]4(CC)CC=CN5CC[C@]31[C@@H]54)C2` are above 1000 nM and above 1000 nM.
For `CC[C@]1(O)C[C@H]2CN(CCc3c([nH]c4ccc(SC)cc34)[C@@](C(=O)OC)(c3cc4c(cc3OC)N(C)[C@H]3[C@@](O)(C(=O)OC)[C@H](OC(C)=O)[C@]5(CC)CC=CN6CC[C@]43[C@@H]65)C2)C1`, the T/C came out at 243% in data set [5] and 110% in [6]. Moreover, the 50% growth inhibitory concentration (GI50) amounted to 2 nM in data set [1] and 0.6 nM in data set [2].
In the case of `CCC1=C[C@H]2CN(C1)Cc1c([nH]c3ccc(C(C)=O)cc13)[C@@](C(=O)OC)(c1cc3c(cc1OC)N(C)[C@H]1[C@@](O)(C(=O)OC)[C@H](OC(C)=O)[C@]4(CC)CC=CN5CC[C@]31[C@@H]54)C2`, the results for the GI50 in data set [1] and in [2] were 20 nM and 4 nM, respectively.
The like results for `CCC1=C[C@H]2CN(C1)Cc1c([nH]c3ccc(C(=O)O)cc13)[C@@](C(=O)OC)(c1cc3c(cc1OC)N(C)[C@H]1[C@@](O)(C(=O)OC)[C@H](OC(C)=O)[C@]4(CC)CC=CN5CC[C@]31[C@@H]54)C2` were, in that order, above 1000 nM and above 1000 nM.
As for `CCC1=C[C@H]2CN(C1)Cc1c([nH]c3ccc(SC)cc13)[C@@](C(=O)OC)(c1cc3c(cc1OC)N(C)[C@H]1[C@@](O)(C(=O)OC)[C@H](OC(C)=O)[C@]4(CC)CC=CN5CC[C@]31[C@@H]54)C2`, the T/C in data set [7] turned out to be 102%; in data set [6], 124%. Moreover, the GI50 in data set [1] was determined as 1 nM; in data set [2], 0.3 nM.
For the compound `CC[C@]1(O)C[C@H]2CN(CCc3c([nH]c4ccc(C)cc34)[C@@](C(=O)OC)(c3cc4c(cc3OC)N(C)[C@H]3[C@@](O)(C(=O)OC)[C@H](OC(C)=O)[C@]5(CC)CC=CN6CC[C@]43[C@@H]65)C2)C1`, the T/C in data set [8] stood at 133%; in data set [3], 181%. Further, the 50% growth inhibitory concentration (GI50) in [1] and in [2] was 0.3 nM each time.
For `CC[C@]1(O)C[C@@H]2CN(CCc3c([nH]c4ccccc34)[C@@](C(=O)OC)(c3cc4c(cc3OC)N(C)[C@H]3[C@@](O)(C(=O)OC)[C@H](OC(C)=O)[C@]5(CC)C=CCN6CC[C@]43[C@@H]65)C2)C1` [VINBLASTINE], the concentration for 50% growth inhibition (GI50) turned out to be 0.4 nM in [1] and 0.9 nM in [2].
In the same order, the values of `CC[C@]1(O)C[C@H]2CN(CCc3c([nH]c4ccccc34)[C@@](C(=O)OC)(c3cc4c(cc3OC)N(C=O)[C@H]3[C@@](O)(C(=O)OC)[C@H](OC(C)=O)[C@]5(CC)C=CCN6CC[C@]43[C@@H]65)C2)C1` [VINCRISTINE] are 1.5 nM and 1.7 nM.
Regarding `CCC1=C[C@@H]2CN(C1)Cc1c([nH]c3ccccc13)[C@@](C(=O)OC)(c1cc3c(cc1OC)N(C)[C@H]1[C@@](O)(C(=O)OC)[C@H](OC(C)=O)[C@]4(CC)C=CCN5CC[C@]31[C@@H]54)C2` [VINORELBINE], the results for the T/C in [3] and in data set [4] were 114% and 117%, respectively. In addition, the figures for the GI50 in data set [1] and in data set [2] were 2.4 nM and 2.7 nM, respectively. For the same compound, the mortality at 72 h in [9] was above 10%.

The GI50 is the concentration at which growth is held to half of that of the control. A higher GI50 goes with lower sensitivity of the cells. The T/C is the ratio of treated to control.
